The text below walks through data of patent publication US9796704B2, “Substituted quinazolines as receptor-type kinase inhibitors” (Symphony Evolution, Inc., priority 2002, dated 2017).

A value given as a limit tells only on which side of the number the result lay.

Assay [1] addresses EGFR (Homo sapiens (Human), UniProt P00533). Nature of the assay: EGFR kinase inhibition, luciferase-coupled chemiluminescent assay (LCCA). The note with it: read-out: EGFR IC50.
Assay [2] has as its target EphB4 (Homo sapiens (Human), UniProt P54760). Nature of the assay: EphB4 kinase inhibition, 33P phosphoryl transfer assay (radiometric). It is filed as biochemical.
Assay [3] addresses EphA2 (Homo sapiens (Human), UniProt P29317). The experiment in a line: EphA2 kinase inhibition, luciferase-coupled chemiluminescent assay (LCCA). The note with it: read-out: EphA2 IC50.
Description: (§1) Kinase activity and compound inhibition are investigated using one or more of the three assay formats described below. The ATP concentrations are selected near its Michaelis-Menten constant (KM) for each individual kinase. Dose-response experiments are performed at ten different inhibitor concentrations in a 384-well plate format. […] Typically H is close to unity.
(§2) In the LCCA assays, kinase activity is measured by the ATP consumption that is accurately measured by luciferase-coupled chemiluminescence. Greiner 384-well white clear bottom medium binding plates are used for LCCA. Briefly the kinase reaction is initiated by mixing compounds, ATP and kinases in a 20 μL volume. At the end of the kinase reaction, a 20 μL luciferase-luciferin mix is added and the chemiluminescent signal is read on a Wallac Victor^2 reader.
The target in assay [4] is KDR (Homo sapiens (Human), UniProt P35968). The experiment in a line: KDR kinase inhibition, luciferase-coupled chemiluminescent assay (LCCA). The note with it: read-out: KDR IC50.
Sequence of KDR (P35968 807-1356): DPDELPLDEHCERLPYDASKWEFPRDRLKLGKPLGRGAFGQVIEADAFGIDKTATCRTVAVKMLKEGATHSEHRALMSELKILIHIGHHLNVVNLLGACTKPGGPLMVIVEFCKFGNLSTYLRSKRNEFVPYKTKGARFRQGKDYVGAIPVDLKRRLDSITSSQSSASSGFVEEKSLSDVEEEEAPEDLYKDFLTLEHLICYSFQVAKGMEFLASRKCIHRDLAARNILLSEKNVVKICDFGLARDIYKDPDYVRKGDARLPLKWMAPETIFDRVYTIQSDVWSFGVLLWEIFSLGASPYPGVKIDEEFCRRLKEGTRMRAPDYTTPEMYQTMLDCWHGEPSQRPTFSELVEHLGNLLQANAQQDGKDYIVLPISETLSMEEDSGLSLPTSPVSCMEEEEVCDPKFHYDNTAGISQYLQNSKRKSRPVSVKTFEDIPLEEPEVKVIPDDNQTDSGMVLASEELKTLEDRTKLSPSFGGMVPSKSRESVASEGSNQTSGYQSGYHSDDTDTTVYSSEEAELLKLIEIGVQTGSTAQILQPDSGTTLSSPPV
Description: as §1, §2
Assay [5] addresses ErbB2 (Homo sapiens (Human), UniProt P04626). The experiment in a line: ErbB2 kinase inhibition, AlphaScreen. It is filed as biochemical. On the procedure:
Kinase activity and compound inhibition are investigated using one or more of the three assay formats described below. The ATP concentrations are selected near its Michaelis-Menten constant (KM) for each individual kinase. Dose-response experiments are performed at ten different inhibitor concentrations in a 384-well plate format. […] These parameters are obtained by nonlinear regression algorithm built into ActivityBase software (available from ID Business Solutions Ltd., of Guildford, Surrey, UK). ^33P Phosphoryl Transfer Assay (Radiometric)
In general terms: Alpha assays give light when donor and acceptor beads are brought close together.

Sequence of EphB4 (P54760 605-890): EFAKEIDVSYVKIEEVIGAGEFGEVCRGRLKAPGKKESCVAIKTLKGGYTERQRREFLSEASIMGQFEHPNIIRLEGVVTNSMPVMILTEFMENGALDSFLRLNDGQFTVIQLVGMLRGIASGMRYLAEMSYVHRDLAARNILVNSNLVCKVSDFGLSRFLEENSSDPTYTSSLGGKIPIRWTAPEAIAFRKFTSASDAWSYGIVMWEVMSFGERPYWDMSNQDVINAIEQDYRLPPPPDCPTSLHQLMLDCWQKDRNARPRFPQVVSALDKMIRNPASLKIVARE
Sequence of EGFR (P00533 672-1210): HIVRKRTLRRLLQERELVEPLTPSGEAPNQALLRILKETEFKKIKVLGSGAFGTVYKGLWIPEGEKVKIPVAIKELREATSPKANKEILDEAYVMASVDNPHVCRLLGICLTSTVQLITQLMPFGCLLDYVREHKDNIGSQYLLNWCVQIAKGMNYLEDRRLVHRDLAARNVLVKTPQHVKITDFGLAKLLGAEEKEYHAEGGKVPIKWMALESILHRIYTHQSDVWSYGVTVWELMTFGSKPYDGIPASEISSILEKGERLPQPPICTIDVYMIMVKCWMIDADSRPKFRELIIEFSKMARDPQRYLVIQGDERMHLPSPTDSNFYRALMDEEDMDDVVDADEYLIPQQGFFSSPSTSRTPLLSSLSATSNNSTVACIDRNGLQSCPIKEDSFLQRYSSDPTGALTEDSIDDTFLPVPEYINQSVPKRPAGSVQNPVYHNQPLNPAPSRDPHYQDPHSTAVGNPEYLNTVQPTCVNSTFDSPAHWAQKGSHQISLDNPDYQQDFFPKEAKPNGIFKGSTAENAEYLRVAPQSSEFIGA
Sequence of EphA2 (P29317 598-890): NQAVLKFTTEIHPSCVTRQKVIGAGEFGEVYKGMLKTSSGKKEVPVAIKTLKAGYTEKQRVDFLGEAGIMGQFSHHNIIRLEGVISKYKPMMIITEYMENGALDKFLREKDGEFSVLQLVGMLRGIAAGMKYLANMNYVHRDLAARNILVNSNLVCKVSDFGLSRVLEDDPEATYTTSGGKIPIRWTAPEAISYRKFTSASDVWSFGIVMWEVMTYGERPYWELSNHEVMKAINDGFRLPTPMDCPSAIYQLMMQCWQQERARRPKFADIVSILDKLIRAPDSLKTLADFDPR
Sequence of ErbB2 (P04626 679-1255): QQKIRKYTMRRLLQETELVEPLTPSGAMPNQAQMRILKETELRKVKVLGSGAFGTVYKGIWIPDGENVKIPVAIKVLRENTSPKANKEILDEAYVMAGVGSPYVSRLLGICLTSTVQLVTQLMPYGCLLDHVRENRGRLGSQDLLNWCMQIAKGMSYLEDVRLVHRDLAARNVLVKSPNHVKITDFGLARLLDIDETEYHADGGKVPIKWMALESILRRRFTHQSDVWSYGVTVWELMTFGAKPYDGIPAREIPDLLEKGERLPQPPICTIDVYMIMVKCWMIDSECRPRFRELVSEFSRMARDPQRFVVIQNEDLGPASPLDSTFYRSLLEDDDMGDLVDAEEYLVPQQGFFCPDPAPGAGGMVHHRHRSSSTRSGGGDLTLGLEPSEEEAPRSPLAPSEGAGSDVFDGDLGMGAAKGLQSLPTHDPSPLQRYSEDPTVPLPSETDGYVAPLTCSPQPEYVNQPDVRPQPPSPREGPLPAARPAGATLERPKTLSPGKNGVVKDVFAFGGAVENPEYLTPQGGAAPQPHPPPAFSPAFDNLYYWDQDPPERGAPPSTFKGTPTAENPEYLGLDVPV

A word on the IC50: it is the concentration that inhibits the measured activity by half. Consider `COc1cc2c(Nc3ccc(Br)c(Cl)c3)ncnc2cc1O[C@H]1CO[C@H]2[C@@H]1OC[C@@H]2OC(F)F` [Example 70, 1,4:3,6-dianhydro-2-O-[4-[(4-bromo-3-chlorophenyl)amino]-6-(methyloxy)quinazolin-7-yl]-5-O-(difluoromethyl)-L-iditol], for which the IC50 in assay [1] is less than 50 nM; in assay [2] it was 50 to 1000 nM; in assay [3] it was 50 to 1000 nM; in assay [4] it was less than 50 nM.
On to `COc1cc2c(Nc3ccc(Br)c(Cl)c3)ncnc2cc1O[C@H]1CO[C@@H]2[C@@H](OC)[C@H](OC)O[C@@H]21` [Example 79, methyl 3,6-anhydro-5-O-[4-[(4-bromo-3-chlorophenyl)amino]-6-(methyloxy)quinazolin-7-yl]-2-O-methyl-alpha-L-idofuranoside], for which the IC50 in assay [1], in assay [2], in assay [3] and in assay [4] was less than 50 nM in each case.
Consider `COc1cc2c(Nc3ccc(F)c(C(F)(F)F)c3)ncnc2cc1O[C@@H]1CO[C@@H]2[C@H]1OC[C@H]2F` [Example 89, 1,4:3,6-dianhydro-2-deoxy-2-fluoro-5-O-[4-{[4-fluoro-3-(trifluoromethyl)phenyl]amino}-6-(methyloxy)quinazolin-7-yl]-D-iditol], for which the IC50 in assay [1], in assay [3] and in assay [4] was less than 50 nM throughout.
Consider `COc1cc2c(Nc3cc(F)cc(F)c3)ncnc2cc1O[C@@H]1CO[C@@H]2[C@H]1OC[C@H]2F` [Example 94, 1,4:3,6-dianhydro-2-deoxy-5-O-[4-[(3,5-difluorophenyl)amino]-6-(methyloxy)quinazolin-7-yl]-2-fluoro-D-iditol], for which the IC50 in assay [1], in assay [2], in assay [3] and in assay [4] was less than 50 nM each time.
Turning to `COc1cc2c(Nc3ccc(Br)cc3Cl)ncnc2cc1O[C@@H]1CO[C@@H]2[C@H]1OC[C@H]2F` [Example 96, 1,4:3,6-dianhydro-5-O-[4-[(4-bromo-2-chlorophenyl)amino]-6-(methyloxy)quinazolin-7-yl]-2-deoxy-2-fluoro-D-iditol], the IC50 in assay [1], in assay [2], in assay [3] and in assay [4] was less than 50 nM each time.
On to `COc1cc2c(Nc3cc(Cl)c(Br)cc3F)ncnc2cc1O[C@@H]1CO[C@@H]2[C@H]1OC[C@H]2F` [Example 98, 1,4:3,6-dianhydro-5-O-[4-[(4-bromo-5-chloro-2-fluorophenyl)amino]-6-(methyloxy)quinazolin-7-yl]-2-deoxy-2-fluoro-D-iditol], for which the IC50 in assay [1], in assay [2], in assay [3] and in assay [4] was less than 50 nM each time.
For `COc1cc2c(Nc3cc(F)c(F)cc3F)ncnc2cc1O[C@@H]1CO[C@@H]2[C@H]1OC[C@H]2F` [Example 99, 1,4:3,6-dianhydro-2-deoxy-2-fluoro-5-O-{6-(methyloxy)-4-[(2,4,5-trifluorophenyl)amino]quinazolin-7-yl}-D-iditol], the IC50 in assay [1], in assay [2], in assay [3] and in assay [4] was less than 50 nM throughout.
With `COc1cc2c(Nc3ccc(Cl)c(Cl)c3Cl)ncnc2cc1O[C@@H]1CO[C@@H]2[C@H]1OC[C@H]2F` [Example 106, 1,4:3,6-dianhydro-2-deoxy-2-fluoro-5-O-{6-(methyloxy)-4-[(2,3,4-trichlorophenyl)amino]quinazolin-7-yl}-D-iditol], the IC50 in assay [1], in assay [2], in assay [3] and in assay [4] was less than 50 nM in each case.
With `COc1cc2c(Nc3cc(Cl)c(Cl)c(Cl)c3)ncnc2cc1O[C@@H]1CO[C@@H]2[C@H]1OC[C@H]2F` [Example 107, 1,4:3,6-dianhydro-2-deoxy-2-fluoro-5-O-{6-(methyloxy)-4-[(3,4,5-trichlorophenyl)amino]quinazolin-7-yl}-D-iditol], the IC50 in assay [1], in assay [2], in assay [3] and in assay [4] was less than 50 nM each time.
On to `COc1cc2c(Nc3ccc(Br)cc3F)ncnc2cc1O[C@@H]1CO[C@@H]2[C@H]1OC[C@H]2F` [Example 108, 1,4:3,6-dianhydro-5-O-[4-[(4-bromo-2-fluorophenyl)amino]-6-(methyloxy)quinazolin-7-yl]-2-deoxy-2-fluoro-D-iditol], for which the half-maximal inhibitory concentration (IC50) in assay [1], in assay [2], in assay [3] and in assay [4] was less than 50 nM each time.
For the compound `COc1cc2c(Nc3ccc(C(F)(F)F)cc3Br)ncnc2cc1O[C@@H]1CO[C@@H]2[C@H]1OC[C@H]2F` [Example 125, 1,4:3,6-dianhydro-5-O-[4-{[2-bromo-4-(trifluoromethyl)phenyl]amino}-6-(methyloxy)quinazolin-7-yl]-2-deoxy-2-fluoro-D-iditol], the 50% inhibitory concentration (IC50) in assay [1], in assay [2], in assay [3] and in assay [4] was less than 50 nM each time.
For the compound `COc1cc2c(Nc3ccc(Cl)c(Cl)c3)ncnc2cc1OCc1noc(C2CCCCN2C)n1` (stereo not drawn) [Example 154, N-(3,4-dichlorophenyl)-6-(methyloxy)-7-({[5-(1-methylpiperidin-2-yl)-1,2,4-oxadiazol-3-yl]methyl}oxy)quinazolin-4-amine], the IC50 in assay [1], in assay [5] and in assay [2] was less than 50 nM each time.
As to `COc1cc2c(Nc3ccc(Cl)c(Cl)c3)ncnc2cc1OCc1cc(C)on1` [Example 160, N-(3,4-dichlorophenyl)-7-{[(5-methylisoxazol-3-yl)methyl]oxy}-6-(methyloxy)quinazolin-4-amine], the IC50 in assay [1], in assay [5] and in assay [2] was less than 50 nM each time.
As to `COc1cc2c(Nc3ccc(Cl)c(Cl)c3)ncnc2cc1OCc1noc(C2CCN(C(=O)OC(C)(C)C)CC2)n1` [Example 197, 1,1-dimethylethyl 4-[3-({[4-[(3,4-dichlorophenyl)amino]-6-(methyloxy)quinazolin-7-yl]oxy}methyl)-1,2,4-oxadiazol-5-yl]piperidine-1-carboxylate], the IC50 in assay [1] was less than 50 nM; in assay [2], less than 50 nM; in assay [3] it was 50 to 1000 nM; in assay [4] it was less than 50 nM.
Consider `COc1cc2c(Nc3ccc(Cl)c(Cl)c3)ncnc2cc1OCc1nc(-c2ccncc2)cs1` [Example 203, N-(3,4-dichlorophenyl)-6-(methyloxy)-7-{[(4-pyridin-4-yl-1,3-thiazol-2-yl)methyl]oxy}quinazolin-4-amine], for which the IC50 in assay [1], in assay [2], in assay [3] and in assay [4] was less than 50 nM throughout.
On to `COc1cc2c(Nc3ccc(Cl)c(Cl)c3)ncnc2cc1OCc1nc(CN2CCCN(C)CC2)cs1` [Example 210, N-(3,4-dichlorophenyl)-7-[({4-[(4-methyl-1,4-diazepan-1-yl)methyl]-1,3-thiazol-2-yl}methyl)oxy]-6-(methyloxy)quinazolin-4-amine], for which the IC50 in assay [1], in assay [2], in assay [3] and in assay [4] was less than 50 nM in each case.
`COc1cc2c(Nc3ccc(Cl)c(Cl)c3)ncnc2cc1OCc1nc(N2CCN(C)CC2)no1` [Example 218, N-(3,4-dichlorophenyl)-6-(methyloxy)-7-({[3-(4-methylpiperazin-1-yl)-1,2,4-oxadiazol-5-yl]methyl}oxy)quinazolin-4-amine]: the IC50 was less than 50 nM in assay [1], less than 50 nM in assay [2], 50 to 1000 nM in assay [3] and less than 50 nM in assay [4].
For the compound `COc1cc2c(Nc3ccc(Cl)c(Cl)c3)ncnc2cc1OCc1cc(Br)cc(Br)c1` [Example 232, 7-{[(3,5-dibromophenyl)methyl]oxy}-N-(3,4-dichlorophenyl)-6-(methyloxy)quinazolin-4-amine], the IC50 in assay [1] is less than 50 nM; in assay [2], 50 to 1000 nM; in assay [3] it was 50 to 1000 nM; in assay [4], less than 50 nM.
Regarding `COc1cc2c(Nc3ccc(Cl)c(Cl)c3)ncnc2cc1OCc1noc(-c2ccccc2)n1` [Example 235, N-(3,4-dichlorophenyl)-6-(methyloxy)-7-{[(5-phenyl-1,2,4-oxadiazol-3-yl)methyl]oxy}quinazolin-4-amine], the IC50 in assay [1] is less than 50 nM; in assay [2], less than 50 nM; in assay [3] it was 50 to 1000 nM; in assay [4], less than 50 nM.
For `CCN1CCCC(c2nc(COc3cc4ncnc(Nc5ccc(Cl)c(Cl)c5)c4cc3OC)no2)C1` (stereo not drawn) [Example 239, N-(3,4-dichlorophenyl)-7-({[5-(1-ethylpiperidin-3-yl)-1,2,4-oxadiazol-3-yl]methyl}oxy)-6-(methyloxy)quinazolin-4-amine], the IC50 is less than 50 nM in assay [1], 50 to 1000 nM in assay [2], 50 to 1000 nM in assay [3] and less than 50 nM in assay [4].
Regarding `CCN1CCC(c2nc(COc3cc4ncnc(Nc5ccc(Cl)c(Cl)c5)c4cc3OC)cs2)CC1` [Example 242, N-(3,4-dichlorophenyl)-7-({[2-(1-ethylpiperidin-4-yl)-1,3-thiazol-4-yl]methyl}oxy)-6-(methyloxy)quinazolin-4-amine], the IC50 in assay [1], in assay [2], in assay [3] and in assay [4] was less than 50 nM throughout.
